Key:
Assay in all cases: relative viability (nuclei count vs DMSO), 5 days (fraction); higher = more cells survive
[1] = compound: Nc1nc(Nc2ccc3c(c2)CC[C@@H](N2CCCC2)CC3)nn1-c1cc2c(nn1)-c1ccccc1CCC2 [Bemcentinib] + CC(=O)c1c(C)c2cnc(Nc3ccc(N4CCNCC4)cn3)nc2n(C2CCCC2)c1=O [Palbociclib] (partner 0.5 µM)
Procedure, shortened: (§1)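 Relative viability was taken as the ratio of nuclei in treated wells to nuclei in vehicle wells. Lung cancer cell lines in 1536-well plates received compounds by pin tool one day after seeding, either one drug alone or a fixed anchor-drug dose plus five library-drug doses (not always all listed) in √10 steps. Nuclei were counted on 4× images after 5 days of treatment, and values are medians of duplicate plates.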

Bemcentinib + Pemetrexed = compound: Nc1nc(Nc2ccc3c(c2)CC[C@@H](N2CCCC2)CC3)nn1-c1cc2c(nn1)-c1ccccc1CCC2 [Bemcentinib] + Nc1nc2[nH]cc(CCc3ccc(C(=O)N[C@@H](CCC(=O)O)C(=O)O)cc3)c2c(=O)[nH]1 [Pemetrexed] (partner 0.2 µM)
Procedure, shortened: as §1

Axitinib + Linsitinib = compound: CNC(=O)c1ccccc1Sc1ccc2c(/C=C/c3ccccn3)n[nH]c2c1 [Axitinib] + C[C@]1(O)C[C@@H](c2nc(-c3ccc4ccc(-c5ccccc5)nc4c3)c3c(N)nccn32)C1 [Linsitinib] (partner 1 µM)
Procedure, shortened: as §1

Axitinib + Pictilisib = compound: CNC(=O)c1ccccc1Sc1ccc2c(/C=C/c3ccccn3)n[nH]c2c1 [Axitinib] + CS(=O)(=O)N1CCN(Cc2cc3nc(-c4cccc5[nH]ncc45)nc(N4CCOCC4)c3s2)CC1 [Pictilisib] (partner 1 µM)
Procedure, shortened: as §1

## NCI-H1648
[1]; first compound 0.04 µM
  relative viability: 0.255
[1]; first compound 0.1265 µM
  relative viability: 0.236
[1]; first compound 0.4 µM
  relative viability: 0.276
[1]; first compound 1.265 µM
  relative viability: 0.297
[1]; first compound 4 µM
  relative viability: 0.291
Bemcentinib + Pemetrexed; first compound 0.04 µM
  relative viability: 0.717
Bemcentinib + Pemetrexed; first compound 0.1265 µM
  relative viability: 0.761
Bemcentinib + Pemetrexed; first compound 0.4 µM
  relative viability: 0.818
Bemcentinib + Pemetrexed; first compound 1.265 µM
  relative viability: 0.697
Bemcentinib + Pemetrexed; first compound 4 µM
  relative viability: 0.841

## NCI-H1563
Axitinib + Linsitinib; first compound 0.005 µM
  relative viability: 1.23
Axitinib + Linsitinib; first compound 0.01581 µM
  relative viability: 1.11
Axitinib + Linsitinib; first compound 0.05 µM
  relative viability: 1.12
Axitinib + Linsitinib; first compound 0.1581 µM
  relative viability: 0.99
Axitinib + Linsitinib; first compound 0.5 µM
  relative viability: 1.22
Bemcentinib + Pemetrexed; first compound 0.04 µM
  relative viability: 0.768
Bemcentinib + Pemetrexed; first compound 0.1265 µM
  relative viability: 0.716
Bemcentinib + Pemetrexed; first compound 0.4 µM
  relative viability: 0.844
Bemcentinib + Pemetrexed; first compound 1.265 µM
  relative viability: 0.663
Bemcentinib + Pemetrexed; first compound 4 µM
  relative viability: 0.772
Axitinib + Pictilisib; first compound 0.005 µM
  relative viability: 0.645
Axitinib + Pictilisib; first compound 0.01581 µM
  relative viability: 0.599
Axitinib + Pictilisib; first compound 0.05 µM
  relative viability: 0.647
Axitinib + Pictilisib; first compound 0.1581 µM
  relative viability: 0.681
Axitinib + Pictilisib; first compound 0.5 µM
  relative viability: 0.659

## NCI-H2170
[1]; first compound 0.04 µM
  relative viability: 0.394
[1]; first compound 0.1265 µM
  relative viability: 0.415
[1]; first compound 0.4 µM
  relative viability: 0.395
[1]; first compound 1.265 µM
  relative viability: 0.422
[1]; first compound 4 µM
  relative viability: 0.407
Bemcentinib + Pemetrexed; first compound 0.04 µM
  relative viability: 0.264
Bemcentinib + Pemetrexed; first compound 0.1265 µM
  relative viability: 0.278
Bemcentinib + Pemetrexed; first compound 0.4 µM
  relative viability: 0.283
Bemcentinib + Pemetrexed; first compound 1.265 µM
  relative viability: 0.244
Bemcentinib + Pemetrexed; first compound 4 µM
  relative viability: 0.264
Axitinib + Pictilisib; first compound 0.005 µM
  relative viability: 0.316
Axitinib + Pictilisib; first compound 0.01581 µM
  relative viability: 0.268
Axitinib + Pictilisib; first compound 0.05 µM
  relative viability: 0.327
Axitinib + Pictilisib; first compound 0.1581 µM
  relative viability: 0.305
Axitinib + Pictilisib; first compound 0.5 µM
  relative viability: 0.259

## SW 900
[1]; first compound 0.04 µM
  relative viability: 0.58
[1]; first compound 0.1265 µM
  relative viability: 0.594
[1]; first compound 0.4 µM
  relative viability: 0.518
[1]; first compound 1.265 µM
  relative viability: 0.538
[1]; first compound 4 µM
  relative viability: 0.591
Bemcentinib + Pemetrexed; first compound 0.04 µM
  relative viability: 0.492
Bemcentinib + Pemetrexed; first compound 0.1265 µM
  relative viability: 0.541
Bemcentinib + Pemetrexed; first compound 0.4 µM
  relative viability: 0.485
Bemcentinib + Pemetrexed; first compound 1.265 µM
  relative viability: 0.433
Bemcentinib + Pemetrexed; first compound 4 µM
  relative viability: 0.48

## A549
Axitinib + Linsitinib; first compound 0.005 µM
  relative viability: 0.606
Axitinib + Linsitinib; first compound 0.01581 µM
  relative viability: 0.606
Axitinib + Linsitinib; first compound 0.05 µM
  relative viability: 0.595
Axitinib + Linsitinib; first compound 0.1581 µM
  relative viability: 0.529
Axitinib + Linsitinib; first compound 0.5 µM
  relative viability: 0.573
Axitinib + Pictilisib; first compound 0.005 µM
  relative viability: 0.482
Axitinib + Pictilisib; first compound 0.01581 µM
  relative viability: 0.587
Axitinib + Pictilisib; first compound 0.05 µM
  relative viability: 0.48
Axitinib + Pictilisib; first compound 0.1581 µM
  relative viability: 0.461
Axitinib + Pictilisib; first compound 0.5 µM
  relative viability: 0.601

## NCI-H2342
[1]; first compound 0.04 µM
  relative viability: 0.605
[1]; first compound 0.1265 µM
  relative viability: 0.614
[1]; first compound 0.4 µM
  relative viability: 0.562
[1]; first compound 1.265 µM
  relative viability: 0.575
[1]; first compound 4 µM
  relative viability: 0.529
Bemcentinib + Pemetrexed; first compound 0.04 µM
  relative viability: 0.703
Bemcentinib + Pemetrexed; first compound 0.1265 µM
  relative viability: 0.805
Bemcentinib + Pemetrexed; first compound 0.4 µM
  relative viability: 0.823
Bemcentinib + Pemetrexed; first compound 1.265 µM
  relative viability: 0.728
Bemcentinib + Pemetrexed; first compound 4 µM
  relative viability: 0.787

## NCI-H1299
Axitinib + Linsitinib; first compound 0.005 µM
  relative viability: 0.962
Axitinib + Linsitinib; first compound 0.01581 µM
  relative viability: 1.03
Axitinib + Linsitinib; first compound 0.05 µM
  relative viability: 0.978
Axitinib + Linsitinib; first compound 0.1581 µM
  relative viability: 1
Axitinib + Linsitinib; first compound 0.5 µM
  relative viability: 1.06
Axitinib + Pictilisib; first compound 0.005 µM
  relative viability: 0.765
Axitinib + Pictilisib; first compound 0.01581 µM
  relative viability: 0.997
Axitinib + Pictilisib; first compound 0.05 µM
  relative viability: 0.75
Axitinib + Pictilisib; first compound 0.1581 µM
  relative viability: 0.856
Axitinib + Pictilisib; first compound 0.5 µM
  relative viability: 1.1

## NCI-H522
[1]; first compound 0.04 µM
  relative viability: 0.834
[1]; first compound 0.1265 µM
  relative viability: 1.04
[1]; first compound 0.4 µM
  relative viability: 1.07
[1]; first compound 1.265 µM
  relative viability: 1.1
[1]; first compound 4 µM
  relative viability: 0.915
Bemcentinib + Pemetrexed; first compound 0.04 µM
  relative viability: 1.03
Bemcentinib + Pemetrexed; first compound 0.1265 µM
  relative viability: 0.908
Bemcentinib + Pemetrexed; first compound 0.4 µM
  relative viability: 0.897
Bemcentinib + Pemetrexed; first compound 1.265 µM
  relative viability: 1.04
Bemcentinib + Pemetrexed; first compound 4 µM
  relative viability: 1.18

## ChaGo-K-1
[1]; first compound 0.04 µM
  relative viability: 0.963
[1]; first compound 0.1265 µM
  relative viability: 0.953
[1]; first compound 0.4 µM
  relative viability: 1.02
[1]; first compound 1.265 µM
  relative viability: 0.954
[1]; first compound 4 µM
  relative viability: 0.938
Bemcentinib + Pemetrexed; first compound 0.04 µM
  relative viability: 0.265
Bemcentinib + Pemetrexed; first compound 0.1265 µM
  relative viability: 0.262
Bemcentinib + Pemetrexed; first compound 0.4 µM
  relative viability: 0.274
Bemcentinib + Pemetrexed; first compound 1.265 µM
  relative viability: 0.244
Bemcentinib + Pemetrexed; first compound 4 µM
  relative viability: 0.251
Axitinib + Pictilisib; first compound 0.005 µM
  relative viability: 0.725
Axitinib + Pictilisib; first compound 0.01581 µM
  relative viability: 0.562
Axitinib + Pictilisib; first compound 0.05 µM
  relative viability: 0.878
Axitinib + Pictilisib; first compound 0.1581 µM
  relative viability: 0.643
Axitinib + Pictilisib; first compound 0.5 µM
  relative viability: 0.541

## EBC-1
Axitinib + Linsitinib; first compound 0.005 µM
  relative viability: 0.935
Axitinib + Linsitinib; first compound 0.01581 µM
  relative viability: 0.874
Axitinib + Linsitinib; first compound 0.05 µM
  relative viability: 0.884
Axitinib + Linsitinib; first compound 0.1581 µM
  relative viability: 0.904
Axitinib + Linsitinib; first compound 0.5 µM
  relative viability: 1.1
Axitinib + Pictilisib; first compound 0.005 µM
  relative viability: 0.492
Axitinib + Pictilisib; first compound 0.01581 µM
  relative viability: 0.485
Axitinib + Pictilisib; first compound 0.05 µM
  relative viability: 0.459
Axitinib + Pictilisib; first compound 0.1581 µM
  relative viability: 0.41
Axitinib + Pictilisib; first compound 0.5 µM
  relative viability: 0.567

## Calu-6
Axitinib + Linsitinib; first compound 0.005 µM
  relative viability: 1.08
Axitinib + Linsitinib; first compound 0.01581 µM
  relative viability: 0.97
Axitinib + Linsitinib; first compound 0.05 µM
  relative viability: 1.06
Axitinib + Linsitinib; first compound 0.1581 µM
  relative viability: 1.01
Axitinib + Linsitinib; first compound 0.5 µM
  relative viability: 1.07
Axitinib + Pictilisib; first compound 0.005 µM
  relative viability: 0.861
Axitinib + Pictilisib; first compound 0.01581 µM
  relative viability: 0.946
Axitinib + Pictilisib; first compound 0.05 µM
  relative viability: 1
Axitinib + Pictilisib; first compound 0.1581 µM
  relative viability: 0.942
Axitinib + Pictilisib; first compound 0.5 µM
  relative viability: 1.17

## NCI-H1703
Axitinib + Linsitinib; first compound 0.005 µM
  relative viability: 0.888
Axitinib + Linsitinib; first compound 0.01581 µM
  relative viability: 0.461
Axitinib + Linsitinib; first compound 0.05 µM
  relative viability: 0.12
Axitinib + Linsitinib; first compound 0.1581 µM
  relative viability: 0.148
Axitinib + Linsitinib; first compound 0.5 µM
  relative viability: 0.164
Axitinib + Pictilisib; first compound 0.005 µM
  relative viability: 0.228
Axitinib + Pictilisib; first compound 0.01581 µM
  relative viability: 0.216
Axitinib + Pictilisib; first compound 0.05 µM
  relative viability: 0.254
Axitinib + Pictilisib; first compound 0.1581 µM
  relative viability: 0.231
Axitinib + Pictilisib; first compound 0.5 µM
  relative viability: 0.2

## NCI-H596
Axitinib + Linsitinib; first compound 0.005 µM
  relative viability: 1.15
Axitinib + Linsitinib; first compound 0.01581 µM
  relative viability: 1.1
Axitinib + Linsitinib; first compound 0.05 µM
  relative viability: 1.24
Axitinib + Linsitinib; first compound 0.1581 µM
  relative viability: 1.16
Axitinib + Linsitinib; first compound 0.5 µM
  relative viability: 1.03
Bemcentinib + Pemetrexed; first compound 0.04 µM
  relative viability: 0.477
Bemcentinib + Pemetrexed; first compound 0.1265 µM
  relative viability: 0.53
Bemcentinib + Pemetrexed; first compound 0.4 µM
  relative viability: 0.55
Bemcentinib + Pemetrexed; first compound 1.265 µM
  relative viability: 0.478
Bemcentinib + Pemetrexed; first compound 4 µM
  relative viability: 0.474
Axitinib + Pictilisib; first compound 0.005 µM
  relative viability: 0.352
Axitinib + Pictilisib; first compound 0.01581 µM
  relative viability: 0.359
Axitinib + Pictilisib; first compound 0.05 µM
  relative viability: 0.417
Axitinib + Pictilisib; first compound 0.1581 µM
  relative viability: 0.379
Axitinib + Pictilisib; first compound 0.5 µM
  relative viability: 0.364
